Assay results: paper PMC6042686 (PLoS Biology, 2018)
“And” between values parts separate entries of the source, which are not always exact repeats. Identical values can stand only once. Like-named read-outs stand apart in the source and are kept apart here.

Experiments:
BALB/c mice [1] = settings: in vivo; for Change of food intake when the compound is added to the food: mouse
tree shrews = format: in vivo, tree shrew (Tupaia belangeri chinensis);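 as to Normalized food-intake, tree shrew (individual replicate): normalized to average intake of feed without capsaicin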
tree shrew TRPV1 (tsV1) = tree shrew TRPV1 (tsV1) (Tupaia chinensis, UniProt L8Y7X1); assay: cell-based; settings: for EC50: EC50 for activation of tsV1
mouse TRPV1 (mV1) = molecular target: T1, mouse TRPV1 (mV1) (Mus musculus, UniProt Q704Y3); assay: cell-based; settings: EC50 for activation of mV1
T1 construct: expressed in transfected cells; host or cells: HEK293T

human TRPV1 (hV1) = molecular target: T2, human TRPV1 (hV1) (Homo sapiens, UniProt Q8NER1); assay: cell-based
T2 construct: expressed in transfected cells; host or cells: HEK293T

polar bear TRPV1 (pV1) = polar bear TRPV1 (pV1) (Ursus maritimus, UniProt A0A384CG69); assay: cell-based
tsV1_M579T = tsV1_M579T (Tupaia chinensis, UniProt L8Y7X1, M598T); assay: cell-based; format: cell-based, tree shrew
tsV1_M579S = tsV1_M579S (Tupaia chinensis, UniProt L8Y7X1, M598S); assay: cell-based; parameters: species or system tree shrew
tsV1_M579G = tsV1_M579G (Tupaia chinensis, UniProt L8Y7X1, M598G); assay: cell-based; parameters: species or system tree shrew
tsV1_M579A = tsV1_M579A (Tupaia chinensis, UniProt L8Y7X1, M598A); assay: cell-based; parameters: species or system tree shrew
tsV1_M579V = tsV1_M579V (Tupaia chinensis, UniProt L8Y7X1, M598V); assay: cell-based; parameters: species or system tree shrew
mV1_T551M [2] = molecular target: T3, mV1_T551M (Mus musculus, UniProt Q704Y3, T551M); assay: cell-based
T3 construct: expressed in transfected cells; host or cells: HEK293T (patch clamp); HEK293 (calcium imaging)

mV1_T551M [3] = molecular target: T3, mV1_T551M; format: cell-based
tree shrew DRG neurons = format: cell-based
mV1_T551V = molecular target: T4, mV1_T551V (Mus musculus, UniProt Q704Y3, T551V); assay: cell-based
T4 construct: expressed in transfected cells; host or cells: HEK293T

BALB/c mice [4] = settings: in vivo
tree shrew = settings: in vivo
mouse paw tissue = settings: in vivo
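For Normalized food-intake, mouse (individual replicate) in this document: normalized to average intake of feed without capsaicin.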

tree shrew TRPV1 (tsV1), sequence (L8Y7X1 1-828): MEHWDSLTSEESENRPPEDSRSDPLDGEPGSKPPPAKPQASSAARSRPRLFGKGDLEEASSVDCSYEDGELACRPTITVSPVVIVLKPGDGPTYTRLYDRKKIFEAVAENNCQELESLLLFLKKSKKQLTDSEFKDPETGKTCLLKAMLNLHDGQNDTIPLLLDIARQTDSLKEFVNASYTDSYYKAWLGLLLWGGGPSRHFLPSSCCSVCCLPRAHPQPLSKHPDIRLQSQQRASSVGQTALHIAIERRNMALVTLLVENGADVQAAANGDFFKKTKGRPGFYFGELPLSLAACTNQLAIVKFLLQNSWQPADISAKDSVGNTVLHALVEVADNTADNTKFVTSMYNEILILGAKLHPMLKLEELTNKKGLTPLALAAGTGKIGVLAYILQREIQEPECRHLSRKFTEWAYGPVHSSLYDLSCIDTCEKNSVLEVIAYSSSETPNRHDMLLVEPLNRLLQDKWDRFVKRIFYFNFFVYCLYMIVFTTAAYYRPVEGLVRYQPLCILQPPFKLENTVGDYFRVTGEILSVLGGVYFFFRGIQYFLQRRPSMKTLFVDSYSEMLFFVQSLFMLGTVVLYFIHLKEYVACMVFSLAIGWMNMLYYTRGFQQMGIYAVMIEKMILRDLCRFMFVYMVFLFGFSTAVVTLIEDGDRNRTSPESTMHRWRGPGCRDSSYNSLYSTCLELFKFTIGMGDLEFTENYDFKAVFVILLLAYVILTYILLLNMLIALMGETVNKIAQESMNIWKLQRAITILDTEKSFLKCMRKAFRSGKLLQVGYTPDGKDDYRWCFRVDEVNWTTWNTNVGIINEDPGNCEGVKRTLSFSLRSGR
tsV1_M579T, sequence (L8Y7X1 1-828 M598T): as the sequence (L8Y7X1 1-828) above, with M598T counted along it
T3 sequence (Q704Y3 whole entry T551M): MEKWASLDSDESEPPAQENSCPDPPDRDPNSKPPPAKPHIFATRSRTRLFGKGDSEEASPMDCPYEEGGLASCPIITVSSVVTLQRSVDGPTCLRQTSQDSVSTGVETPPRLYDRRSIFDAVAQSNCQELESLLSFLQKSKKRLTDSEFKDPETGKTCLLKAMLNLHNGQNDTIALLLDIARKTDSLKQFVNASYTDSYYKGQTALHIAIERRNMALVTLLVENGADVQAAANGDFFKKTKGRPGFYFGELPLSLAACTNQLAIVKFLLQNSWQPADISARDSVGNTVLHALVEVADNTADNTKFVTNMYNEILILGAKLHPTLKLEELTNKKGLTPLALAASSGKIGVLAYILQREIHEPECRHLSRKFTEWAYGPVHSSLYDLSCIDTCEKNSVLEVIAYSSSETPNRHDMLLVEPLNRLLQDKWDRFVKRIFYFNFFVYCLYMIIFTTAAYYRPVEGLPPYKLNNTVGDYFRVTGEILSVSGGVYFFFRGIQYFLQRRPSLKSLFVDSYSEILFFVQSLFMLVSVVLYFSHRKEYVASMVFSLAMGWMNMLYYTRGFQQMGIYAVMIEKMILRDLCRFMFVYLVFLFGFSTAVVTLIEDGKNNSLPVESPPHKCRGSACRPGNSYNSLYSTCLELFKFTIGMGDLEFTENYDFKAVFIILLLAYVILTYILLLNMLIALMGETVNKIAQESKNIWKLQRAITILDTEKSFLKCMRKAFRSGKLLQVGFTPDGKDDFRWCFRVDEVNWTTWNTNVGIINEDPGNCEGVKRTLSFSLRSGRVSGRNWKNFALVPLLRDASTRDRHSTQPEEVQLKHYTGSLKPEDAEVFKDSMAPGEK
T1 sequence (Q704Y3 whole entry): as the sequence (Q704Y3 whole entry T551M) above, with M551T counted along it
tsV1_M579S, sequence (L8Y7X1 1-828 M598S): as the sequence (L8Y7X1 1-828) above, with M598S counted along it
T4 sequence (Q704Y3 whole entry T551V): as the sequence (Q704Y3 whole entry T551M) above, with M551V counted along it
tsV1_M579V, sequence (L8Y7X1 1-828 M598V): as the sequence (L8Y7X1 1-828) above, with M598V counted along it
tsV1_M579G, sequence (L8Y7X1 1-828 M598G): as the sequence (L8Y7X1 1-828) above, with M598G counted along it
tsV1_M579A, sequence (L8Y7X1 1-828 M598A): as the sequence (L8Y7X1 1-828) above, with M598A counted along it
polar bear TRPV1 (pV1), sequence (A0A384CG69 1-841): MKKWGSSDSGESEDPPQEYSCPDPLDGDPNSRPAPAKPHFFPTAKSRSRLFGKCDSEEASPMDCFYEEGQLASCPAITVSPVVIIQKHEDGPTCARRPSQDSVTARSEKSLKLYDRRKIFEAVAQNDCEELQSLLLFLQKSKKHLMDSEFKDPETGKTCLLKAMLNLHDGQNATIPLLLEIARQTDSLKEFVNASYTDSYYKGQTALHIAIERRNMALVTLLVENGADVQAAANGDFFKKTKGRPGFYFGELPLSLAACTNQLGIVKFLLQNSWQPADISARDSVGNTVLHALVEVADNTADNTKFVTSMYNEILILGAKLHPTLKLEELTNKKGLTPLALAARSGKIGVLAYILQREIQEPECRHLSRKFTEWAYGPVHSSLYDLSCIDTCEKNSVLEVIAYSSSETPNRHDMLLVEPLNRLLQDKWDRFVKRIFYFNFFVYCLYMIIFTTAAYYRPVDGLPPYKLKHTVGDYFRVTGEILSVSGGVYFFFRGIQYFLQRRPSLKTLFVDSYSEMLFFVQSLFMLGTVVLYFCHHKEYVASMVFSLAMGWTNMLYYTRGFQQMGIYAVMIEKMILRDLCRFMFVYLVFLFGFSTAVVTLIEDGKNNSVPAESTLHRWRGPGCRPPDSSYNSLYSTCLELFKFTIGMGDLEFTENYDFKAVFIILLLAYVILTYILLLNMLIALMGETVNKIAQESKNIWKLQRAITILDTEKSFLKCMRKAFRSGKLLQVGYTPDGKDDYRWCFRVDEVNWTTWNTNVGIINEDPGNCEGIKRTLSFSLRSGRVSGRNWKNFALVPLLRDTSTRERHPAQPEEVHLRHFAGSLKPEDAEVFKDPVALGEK
T2 sequence (Q8NER1 whole entry): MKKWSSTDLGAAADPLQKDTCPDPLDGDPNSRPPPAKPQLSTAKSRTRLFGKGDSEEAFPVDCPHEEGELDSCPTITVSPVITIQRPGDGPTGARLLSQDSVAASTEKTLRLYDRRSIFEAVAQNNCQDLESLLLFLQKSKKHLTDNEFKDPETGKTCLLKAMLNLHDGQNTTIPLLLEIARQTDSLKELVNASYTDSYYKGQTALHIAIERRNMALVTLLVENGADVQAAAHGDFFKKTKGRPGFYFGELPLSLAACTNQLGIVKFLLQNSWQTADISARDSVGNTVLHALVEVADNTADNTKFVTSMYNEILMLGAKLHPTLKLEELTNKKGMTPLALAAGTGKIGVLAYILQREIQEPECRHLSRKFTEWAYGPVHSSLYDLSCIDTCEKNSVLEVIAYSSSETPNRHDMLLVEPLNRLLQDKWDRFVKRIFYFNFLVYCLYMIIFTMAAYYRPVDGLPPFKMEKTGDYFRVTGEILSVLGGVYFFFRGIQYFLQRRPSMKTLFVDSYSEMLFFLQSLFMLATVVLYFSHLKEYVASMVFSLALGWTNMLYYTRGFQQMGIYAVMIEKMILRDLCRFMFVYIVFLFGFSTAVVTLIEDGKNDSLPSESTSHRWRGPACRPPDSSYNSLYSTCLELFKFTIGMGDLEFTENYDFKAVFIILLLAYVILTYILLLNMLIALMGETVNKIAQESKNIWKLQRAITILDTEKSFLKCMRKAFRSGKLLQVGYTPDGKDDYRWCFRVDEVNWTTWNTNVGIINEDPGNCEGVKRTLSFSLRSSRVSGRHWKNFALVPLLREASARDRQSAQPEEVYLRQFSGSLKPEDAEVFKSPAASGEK

Question: CCCCC/C=C/C=C/C(=O)NCCc1ccc(O)c(OC)c1 [Cap2] was tested. Which “Change of food intake when the compound is added to the food” value (“Change of food intake” below) (BALB/c mice [1]) did it give?
Answer: significantly decreased

Question: What about the “Change of food intake” value (tree shrews; in vivo) of the same compound?
Answer: slight increase

Question: And the “Normalized food-intake, AVE_tree shrew” value (tree shrews; in vivo)?
Answer: 1.13 and 1.269 and 1.38 and 1.28

Question: And the EC50 (tree shrew TRPV1 (tsV1))?
Answer: 1900 µM and ~1900 µM

Question: And the “EC50 of tsV1 larger than the EC50 of mV1” value (tree shrew TRPV1 (tsV1); hek293t cells)?
Answer: approximately 2,500 fold

Question: And the EC50 (mouse TRPV1 (mV1))?
Answer: 0.74 ± 0.05 µM

Question: And the EC50 (human TRPV1 (hV1))?
Answer: 5.73 ± 0.05 µM

Question: What about the EC50 (polar bear TRPV1 (pV1)) of the same compound?
Answer: 0.87 ± 0.04 µM

Question: And the EC50 (tsV1_M579T)?
Answer: 2.34 ± 0.26 µM

Question: And the “Shift of concentration-response curve relative to wild-type tsV1” value (tsV1_M579T)?
Answer: large shifts to the left

Question: What about the “Change in the EC50 on mutating the homologous site (mV1_T551M or tsV1_M579T)” value (tsV1_M579T; hek293t cells) of the same compound?
Answer: approximately 1,000 fold

Question: And the “EC50 of tsV1_M579T lower than EC50 of wild-type tsV1” value (tsV1_M579T; hek293t cells)?
Answer: approximately 1,000 fold

Question: And the EC50 (tsV1_M579S)?
Answer: 5.46 µM

Question: What about the “Shift of concentration-response curve relative to wild-type tsV1” value (tsV1_M579S) of the same compound?
Answer: large shifts to the left

Question: What about the EC50 (tsV1_M579G) of the same compound?
Answer: 920 µM

Question: And the EC50 (tsV1_M579A)?
Answer: 1070 µM

Question: What about the EC50 (tsV1_M579V) of the same compound?
Answer: 830 µM

Question: What about the EC50 (mV1_T551M [2]) of the same compound?
Answer: 151.4 ± 0.12 µM

Question: And the “Calcium signal in mV1_T551M-expressing HEK293 cells” value (mV1_T551M [3])?
Answer: largely diminished calcium signal

Question: COc1cc(CNC(=O)CCCC/C=C/C(C)C)ccc1O [capsaicin] was tested. Which “Normalized food-intake, mouse (individual replicate)” value (BALB/c mice [1]) did it give?
Answer: 0.359 and 0.496 and 0.524 and 0.168 and 0.264 and 0.288 and 0.063 and 0.143 and 0.169 and 0.008 and 0.009 and 0.007

Question: What about the “Change of food intake” value (BALB/c mice [1]) of the same compound?
Answer: significantly reduced in a concentration-dependent manner

Question: What about the “Normalized food-intake, AVE_tree shrew” value (tree shrews; 24 hours, n = 3) of the same compound?
Answer: 1.087 and 1.119 and 1.28 and 1.255

Question: And the “Change of food intake” value (tree shrews; in vivo)?
Answer: no such change

Question: And the “Normalized food-intake, tree shrew (individual replicate)” value (tree shrews; in vivo)?
Answer: 1.004 and 1.211 and 1.046 and 1.034 and 1.223 and 1.101 and 1.209 and 1.372 and 1.259 and 1.119 and 1.381 and 1.265

Question: And the “Calcium response of DRG neurons” value (tree shrew DRG neurons)?
Answer: much weaker response

Question: What about the EC50 (tree shrew TRPV1 (tsV1)) of the same compound?
Answer: 5.2 ± 0.13 µM

Question: And the EC50 (mouse TRPV1 (mV1))?
Answer: 0.2 µM and ~0.2 µM

Question: What about the “Change in the EC50 on mutating the homologous site (mV1_T551M or tsV1_M579T)” value (tsV1_M579T) of the same compound?
Answer: approximately 10 fold

Question: What about the “EC50 of tsV1_M579T lower than EC50 of wild-type tsV1” value (tsV1_M579T) of the same compound?
Answer: approximately 50 fold

Question: And the EC50 (mV1_T551M [2])?
Answer: ~2.1 µM

Question: What about the EC50 (mV1_T551V) of the same compound?
Answer: ~1.5 µM

Question: And the “paw licking after capsaicin (S1B Fig), mouse, single animals” value (BALB/c mice [4])?
Answer: 74.03 and 80.09 and 18.24 and 91.1 and 11.82 and 100.82 and 8.03 and 45.87 and 22.39 and 126.21

Question: And the “paw licking after capsaicin (S1B Fig), AVE_mouse” value (BALB/c mice [4]; mouse)?
Answer: 55.056 and 60.664

Question: And the “Capsaicin-induced acute pain behavior (paw licking)” value (tree shrew)?
Answer: absent

Question: And the “paw licking after capsaicin (S1B Fig), AVE_tree shrew” value (tree shrew)?
Answer: 1.836 and 1.5525

Question: What about the “paw licking after capsaicin (S1B Fig), tree shrew, single animals” value (tree shrew) of the same compound?
Answer: 3.34 and 1.67 and 2.84 and 0.95 and 1.47 and 1.89 and 1.46 and 0.74 and 2 and 2.07 and 2.32 and 2.01 and 1.28

Question: And the “Paw tissue histology (H&E) after hind paw injection” value (mouse paw tissue)?
Answer: significantly increased

Question: CCCCC[C@H](O)CC(=O)CCc1ccc(O)c(OC)c1 [gingerol] was tested. Which “Change in the EC50 on mutating the homologous site (mV1_T551M or tsV1_M579T)” value (tsV1_M579T) did it give?
Answer: approximately 6 fold

Question: Which “Change in the EC50 on mutating the homologous site (mV1_T551M or tsV1_M579T)” value (tsV1_M579T; hek293t cells) does the source give for O=C(/C=C/C=C/c1ccc2c(c1)OCO2)N1CCCCC1 [piperine] here?
Answer: approximately 2 fold

Question: How did the “Change in the EC50 on mutating the homologous site (mV1_T551M or tsV1_M579T)” value (tsV1_M579T; hek293t cells) turn out when CCCCC/C=C/C(=O)CCc1ccc(O)c(OC)c1 [shogaol] was run?
Answer: approximately 10 fold
